Source: the NIST ThermoML archive (doi:10.1016/j.jct.2004.11.009)

Assays:
[1] = 101.33 kPa, Liquid
[2] = xn = mol fraction of the nth substance listed; conditions: 101.33 kPa, Liquid, x2 = 0

Cc1cccnc1 [3-methylpyridine]
[1]
Conditions | mass density [kg/m3] | viscosity [mPa·s]
293.15 K | 956 | 0.9459
303.15 K | 946.6 | 0.8318
313.15 K | 937.7 | 0.7352
323.15 K | 928.3 | 0.6565
333.15 K | 919.3 | 0.5936
343.15 K | 910.3 | 0.539

O [water] + Cc1cccnc1
[2]
Conditions | mass density [kg/m3] | viscosity [mPa·s]
293.15 K | – | 1.002
303.15 K | – | 0.7977
313.15 K | – | 0.6532
323.15 K | 988 | 0.547
333.15 K | 983.2 | 0.4665
343.15 K | 977.8 | 0.404
